“And” between values parts separate entries of the source, which are not always exact repeats. Equal values may be shown once.
Assays:
[1] = target: Glycogen synthase kinase-3 beta (Homo sapiens, UniProt P49841); assay: TR-FRET Assay
Procedure, shortened: (§1)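 Signal is measured as TR-FRET between a terbium anti-phospho-Ser641 antibody and streptavidin-d2, added after an EDTA quench. Compounds are preincubated 30 min in assay buffer.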

[2] = target: Glycogen synthase kinase-3 alpha (Homo sapiens, UniProt P49840); assay: TR-FRET Assay
Sequence of Glycogen synthase kinase-3 alpha (P49840 whole entry): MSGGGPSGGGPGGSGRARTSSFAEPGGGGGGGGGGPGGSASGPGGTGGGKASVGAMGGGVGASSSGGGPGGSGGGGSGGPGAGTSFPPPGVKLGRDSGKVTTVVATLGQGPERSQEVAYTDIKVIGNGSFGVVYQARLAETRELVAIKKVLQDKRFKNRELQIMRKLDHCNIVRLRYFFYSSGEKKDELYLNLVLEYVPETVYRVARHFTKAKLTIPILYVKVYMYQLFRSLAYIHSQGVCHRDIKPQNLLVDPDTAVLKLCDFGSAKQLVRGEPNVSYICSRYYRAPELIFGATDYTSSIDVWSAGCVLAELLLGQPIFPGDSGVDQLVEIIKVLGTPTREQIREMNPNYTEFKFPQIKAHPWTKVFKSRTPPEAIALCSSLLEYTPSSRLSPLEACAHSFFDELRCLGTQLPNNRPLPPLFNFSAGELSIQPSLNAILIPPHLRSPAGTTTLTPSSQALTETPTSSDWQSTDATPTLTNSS
Procedure, shortened: as §1

Sequence of Glycogen synthase kinase-3 beta (P49841 whole entry): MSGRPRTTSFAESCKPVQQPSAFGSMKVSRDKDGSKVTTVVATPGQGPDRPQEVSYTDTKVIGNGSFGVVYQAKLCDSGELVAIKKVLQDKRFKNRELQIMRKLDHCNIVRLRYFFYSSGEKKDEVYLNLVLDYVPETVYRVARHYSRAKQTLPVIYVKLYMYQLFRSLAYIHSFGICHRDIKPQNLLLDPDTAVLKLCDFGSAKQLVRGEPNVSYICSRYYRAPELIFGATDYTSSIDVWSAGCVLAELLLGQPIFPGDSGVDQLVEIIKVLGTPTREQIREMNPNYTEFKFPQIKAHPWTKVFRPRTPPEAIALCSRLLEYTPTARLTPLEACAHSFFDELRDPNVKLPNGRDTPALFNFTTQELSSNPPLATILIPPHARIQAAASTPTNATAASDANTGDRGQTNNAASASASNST

CC[C@]1(c2cccc(C(F)(F)C(F)(F)F)c2)C2=CN=NC2NC2=C1C(=O)CC(C)(C)C2 (some centres not stated) [US20250313563, Compound 949103]
IC50 [1]: < 100 nM and 100 to 1000 nM | IC50 [2]: < 100 nM and 100 to 1000 nM

CC[C@@]1(c2cccc(-c3cc[n+]([O-])cc3[S+](C)[O-])c2)C2=CN=NC2NC2=C1C(=O)CC(C)(C)C2 (some centres not stated) [US20250313563, Compound 947570]
IC50 [1]: 1000 to 5000 nM | IC50 [2]: 100 to 1000 nM

CC(C)Oc1ccc(S(=O)(=O)N2CCC3(CC2)C2=C(N=NC2)NC2=C3C(=O)CC(C)(C)C2)cn1 [US20250313563, Compound 945676]
IC50 [1]: < 100 nM | IC50 [2]: < 100 nM

CC[C@]1(c2cccc(N(C)c3ccnc(C)c3)c2)C2=CN=NC2NC2=C1C(=O)CC(C)(C)C2 (some centres not stated) [US20250313563, Compound 932645]
IC50 [1]: 1000 to 5000 nM | IC50 [2]: 100 to 1000 nM

CC1(C)CC(=O)C2=C(C1)NC1=C(CN=N1)C21CCC2(CCC(=O)N2)CC1 (configuration not stated) [US20250313563, Compound 913056]
IC50 [1]: 1000 to 5000 nM | IC50 [2]: 100 to 1000 nM

CC1(C)CC(=O)C2=C(C1)NC1=C(CN=N1)C21CN(CC2CCOCC2)C1 [US20250313563, Compound 943545]
IC50 [1]: > 5000 nM | IC50 [2]: > 5000 nM

CC1(C)CC(=O)C2=C(C1)NC1=C(CN=N1)C21CCN(CC(F)(F)F)CC1 [US20250313563, Compound 874528]
IC50 [1]: 100 to 1000 nM | IC50 [2]: < 100 nM

CC[C@]1(c2cccc(-c3cnnc(C)c3)c2)C2=CN=NC2NC2=C1C(=O)NC(C)(C)C2 (some centres not stated) [US20250313563, Compound 944071]
IC50 [1]: > 5000 nM | IC50 [2]: 1000 to 5000 nM

CCC(C)C(=O)N1CC2(C1)CC1(CO2)C2=C(N=NC2)NC2=C1C(=O)CC(C)(C)C2 (configuration not stated) [US20250313563, Compound 947270]
IC50 [1]: 100 to 1000 nM | IC50 [2]: < 100 nM

CCC1(c2cccc(N(C)C(=O)c3ccccc3)c2)C2=CN=NC2NC2=C1C(=O)CC(C)(C)C2 (configuration not stated) [US20250313563, Compound 909201]
IC50 [1]: 100 to 1000 nM | IC50 [2]: < 100 nM

CC1(C)CC(=O)C2=C(C1)NC1=C(CN=N1)C2(C)c1cccc(Br)c1 (configuration not stated) [US20250313563, Compound 789277]
IC50 [1]: 100 to 1000 nM | IC50 [2]: < 100 nM

CCC1(c2cccc(-c3cc(C)nn3C)c2)C2=CN=NC2NC2=C1C(=O)CC(C)(C)C2 (configuration not stated) [US20250313563, Compound 929402]
IC50 [1]: 100 to 1000 nM | IC50 [2]: < 100 nM

CC[C@]1(c2cccc(-c3cncn3C)c2)C2=C(CC(C)(C)CC2=O)NC2N=NC(C)=C21 (some centres not stated) [US20250313563, Compound 913037]
IC50 [1]: 100 to 1000 nM | IC50 [2]: < 100 nM

CC1(C)CC(=O)C2=C(C1)NC1N=NC=C1[C@]21C[C@H](c2ccncc2)C1 (some centres not stated) [US20250313563, Compound 889664]
IC50 [1]: 100 to 1000 nM | IC50 [2]: < 100 nM

CC1(C)CC2=C(C(=O)C1F)[C@]1(CC[C@H](C(F)(F)F)CC1)C1=C(N=NC1)N2 (some centres not stated) [US20250313563, Compound 917133]
IC50 [1]: < 100 nM | IC50 [2]: < 100 nM

CC1(C)CC(=O)C2=C(C1)NC1N=NC(C3(C(F)(F)F)CC3)=C1[C@]21CCc2c(F)cccc21 (some centres not stated) [US20250313563, Compound 816840]
IC50 [1]: 100 to 1000 nM | IC50 [2]: 1000 to 5000 nM

CC1CCC12C1=C(N=NC1)NC1=C2C(=O)CC(C)(C)C1 (configuration not stated) [US20250313563, Compound 949640]
IC50 [1]: 1000 to 5000 nM | IC50 [2]: 100 to 1000 nM

CC[C@]1(c2cccc(C3=CNN4CC(F)=CC(F)=C34)c2)C2=CN=NC2NC2=C1C(=O)NC(C)(C)C2 (some centres not stated) [US20250313563, Compound 949390]
IC50 [1]: > 5000 nM | IC50 [2]: 1000 to 5000 nM

CC[C@@]1(c2cccc(-c3ccnn3C)c2)C2=CN=NC2NC2=C1C(=O)N[C@@]1(CCOC1)C2 (some centres not stated) [US20250313563, Compound 948015]
IC50 [1]: < 100 nM | IC50 [2]: < 100 nM

CCC1(c2cccc(-c3cnnn3C)c2)C2=CN=NC2NC2=C1C(=O)CC(C)(C)C2 (configuration not stated) [US20250313563, Compound 947398]
IC50 [1]: < 100 nM | IC50 [2]: < 100 nM

CC[C@@]1(c2cccc(-c3ccncc3)c2)C2=CN=NC2NC2=C1C(=O)CC(C)(C)[C@H]2F (some centres not stated) [US20250313563, Compound 959343]
IC50 [1]: < 100 nM and 1000 to 5000 nM | IC50 [2]: < 100 nM and 100 to 1000 nM

CC[C@]1(c2cccc([C@@H]3CCOC(C)(C)C3)c2)C2=CN=NC2NC2=C1C(=O)CC(C)(C)C2 (some centres not stated) [US20250313563, Compound 912089]
IC50 [1]: 100 to 1000 nM | IC50 [2]: 100 to 1000 nM

C[C@@H]1C[C@H](C)C(=O)C2=C1NC1=C(CN=N1)C21CCOCC1 [US20250313563, Compound 893316]
IC50 [1]: 100 to 1000 nM | IC50 [2]: < 100 nM

CC[C@@]1(c2cccc(C(F)(F)F)c2)C2=CN=NC2NC2=C1C(=O)N[C@H](C)C2 (some centres not stated) [US20250313563, Compound 912098]
IC50 [1]: 100 to 1000 nM | IC50 [2]: < 100 nM

CC[C@]1(c2cccc(C3=CNN4CC=CN=C34)c2)C2=CN=NC2NC2=C1C(=O)NC(C)(C)C2 (some centres not stated) [US20250313563, Compound 949389]
IC50 [1]: > 5000 nM | IC50 [2]: 1000 to 5000 nM

CC(C)(C)CC1=C2C(N=N1)NC1=C(C(=O)CC(C)(C)C1)C21CCc2ccc(F)cc21 (configuration not stated) [US20250313563, Compound 784440]
IC50 [1]: < 100 nM | IC50 [2]: 100 to 1000 nM

CC[C@@]1(c2cccc(C(F)(F)F)c2)C2=CN=NC2NC2=C1C(=O)C[C@@]1(CCN(C)C1=O)C2 (some centres not stated) [US20250313563, Compound 950326]
IC50 [1]: 100 to 1000 nM | IC50 [2]: < 100 nM

CCC1(c2cccc(C(F)(F)F)c2)C2=C(N=NC2)NC2=C1C(=O)NC2C (configuration not stated) [US20250313563, Compound 917295]
IC50 [1]: 1000 to 5000 nM | IC50 [2]: 100 to 1000 nM

CCC1(c2cccc(N(c3cccnc3)C3CC3)c2)C2=CN=NC2NC2=C1C(=O)CC(C)(C)C2 (configuration not stated) [US20250313563, Compound 913274]
IC50 [1]: < 100 nM | IC50 [2]: < 100 nM

CC[C@]1(c2cccc(C(F)(F)F)c2)C2=CN=NC2NC2=C1C(=O)N[C@H](c1ccccc1)C2 (some centres not stated) [US20250313563, Compound 945361]
IC50 [1]: 100 to 1000 nM | IC50 [2]: < 100 nM

CCC1(c2ccc(C)cc2)C2=C(N=NC2)NC2=C1C(=O)CC(C)(C)C2 (configuration not stated) [US20250313563, Compound 785739]
IC50 [1]: > 5000 nM | IC50 [2]: 100 to 1000 nM

CC[C@]1(c2ccccc2)C2=CN=NC2NC2=C1C(=O)C[C@@](C)(C(F)(F)F)C2 (some centres not stated) [US20250313563, Compound 819568]
IC50 [1]: 100 to 1000 nM | IC50 [2]: 100 to 1000 nM

CC[C@]1(c2cccc(N(C)C(=O)c3ccn(C)n3)c2)C2=CN=NC2NC2=C1C(=O)CC(C)(C)C2 (some centres not stated) [US20250313563, Compound 929455]
IC50 [1]: > 5000 nM | IC50 [2]: > 5000 nM

CC[C@@]1(c2cccc(N3CCCCC3)c2)C2=CN=NC2NC2=C1C(=O)CC(C)(C)C2 (some centres not stated) [US20250313563, Compound 810369]
IC50 [1]: 100 to 1000 nM | IC50 [2]: < 100 nM

CC[C@]1(c2cccc(-c3ccncc3C)c2)C2=CN=NC2NC2=C1C(=O)N[C@@]1(CCOC1)C2 (some centres not stated) [US20250313563, Compound 948662]
IC50 [1]: > 5000 nM | IC50 [2]: 1000 to 5000 nM

CC1(C)CC(=O)C2=C(C1)NC1=C(CN=N1)[C@]21CCCOCC1 [US20250313563, Compound 874535]
IC50 [1]: < 100 nM | IC50 [2]: < 100 nM

CC1(C)CC(=O)C2=C(NC3=C(CN=N3)[C@]23CC[C@H](C(F)(F)F)CC3)C1F (some centres not stated) [US20250313563, Compound 917136]
IC50 [1]: 100 to 1000 nM | IC50 [2]: < 100 nM

CC[C@@]1(c2cccc(C(F)(F)F)c2)C2=C(N=NC2)NC2=C1C(=O)CC2 [US20250313563, Compound 951566]
IC50 [1]: > 5000 nM | IC50 [2]: 1000 to 5000 nM

CC[C@@]1(c2cccc(C(F)(F)F)c2)C2=CN=NC2NC2=C1C(=O)N(c1ccc(OC)cc1)CC2 (some centres not stated) [US20250313563, Compound 948227]
IC50 [1]: > 5000 nM | IC50 [2]: 1000 to 5000 nM

CC[C@]1(c2cccc(C(F)(F)F)c2)C2=CN=NC2NC2=C1C(=O)C[C@@]1(CCNC1=O)C2 (some centres not stated) [US20250313563, Compound 950332]
IC50 [1]: > 5000 nM | IC50 [2]: > 5000 nM

CCC1(c2cccc(C3CN(C(C)=O)C3)c2)C2=CN=NC2NC2=C1C(=O)CC(C)(C)C2 (configuration not stated) [US20250313563, Compound 948779]
IC50 [1]: > 5000 nM | IC50 [2]: 1000 to 5000 nM

CC[C@]1(c2cccc(C(F)(F)F)c2)C2=CN=NC2NC2=C1C(=O)C[C@H](C)C2 (some centres not stated) [US20250313563, Compound 810450]
IC50 [1]: < 100 nM and 1000 to 5000 nM | IC50 [2]: < 100 nM and 100 to 1000 nM

CC[C@@]1(c2cccc(-c3cc(C)ncc3OC)c2)C2=CN=NC2NC2=C1C(=O)CC(C)(C)C2 (some centres not stated) [US20250313563, Compound 945995]
IC50 [1]: < 100 nM and 1000 to 5000 nM | IC50 [2]: < 100 nM and 100 to 1000 nM

CCC1(c2cccc(Br)c2)C2=CN=NC2NC2=C1C(=O)NC(C)(C)C2 (configuration not stated) [US20250313563, Compound 913439]
IC50 [1]: 100 to 1000 nM | IC50 [2]: < 100 nM

CC[C@]1(c2ccccc2)C2=CN=NC2NC2=C1C(=O)[C@H](C)C[C@@H]2C (some centres not stated) [US20250313563, Compound 909216]
IC50 [1]: 100 to 1000 nM | IC50 [2]: 100 to 1000 nM

CCC1(c2cccc(S(=O)(=O)C3CCCCC3)c2)C2=CN=NC2NC2=C1C(=O)CC(C)(C)C2 (configuration not stated) [US20250313563, Compound 918273]
IC50 [1]: < 100 nM | IC50 [2]: < 100 nM

From BindingDB's records for patent US20250313563 (The Broad Institute, 2025)
